Data taken from patent US6500431B1, “Inhibitors of angiogenesis and tumor growth” (University of Southern California, priority 1998, dated 2002).
No end group written: not given here.

B1: Prosaposin: 70 kD glycoprotein, precursor of Saposin A, B, C and D; naturally occurring full-length (protein, listed as Homo sapiens)
chain: MYALFLLASLLGAALAGPVLGLKECTRGSAVWCQNVKTASDCGAVKHCLQTVWNKPTVKSLPCDICKDVVTAAGDMLKDNATEEEILVYLEKTCDWLPKPNMSASCKEIVDSYLPVILDIIKGEMSRPGEVCSALNLCESLQKHLAELNHQKQLESNKIPELDMTEVVAPFMANIPLLLYPQDGPRSKPQPKDNGDVCQDCIQMVTDIQTAVRTNSTFVQALVEHVKEECDRLGPGMADICKNYISQYSEIAIQMMMHMQPKEICALVGFCDEVKEMPMQTLVPAKVASKNVIPALELVEPIKKHEVPAKSDVYCEVCEFLVKEVTKLIDNNKTEKEILDAFDKMCSKLPKSLSEECQEVVDTYGSSILSILLEEVSPELVCSMLHLCSGTRLPALTVHVTQPKDGGFCEVCKKLVGYLDRNLEKNSTKQEILAALEKGCSFLPDPYQKQCDQFVAEYEPVLIEILVEVMDPSFVCLKIGACPSAHKPLLGTEKCIWGPSYWCQNTETAAQCNAVEHCKRHVWN
modifications: prosaposin
notes: 70 kD glycoprotein, precursor of Saposin A, B, C and D; naturally occurring full-length
B2: Saposin A: sphingolipid-binding glycoprotein derived from Prosaposin; recombinant (protein, UniProt P07602 60-142, looked up)
Saposin-A: SLPCDICKDVVTAAGDMLKDNATEEEILVYLEKTCDWLPKPNMSASCKEIVDSYLPVILDIIKGEMSRPGEVCSALNLCESLQ
modifications: Saposin-A
notes: recombinant
B3: Saposin C: sphingolipid-binding glycoprotein derived from Prosaposin; recombinant (protein, UniProt P07602 311-390, looked up)
Saposin-C: SDVYCEVCEFLVKEVTKLIDNNKTEKEILDAFDKMCSKLPKSLSEECQEVVDTYGSSILSILLEEVSPELVCSMLHLCSG
modifications: Saposin-C
notes: recombinant
B4: Saposin D: sphingolipid-binding glycoprotein derived from Prosaposin; recombinant (protein, UniProt P07602 405-486, looked up)
Saposin-D: DGGFCEVCKKLVGYLDRNLEKNSTKQEILAALEKGCSFLPDPYQKQCDQFVAEYEPVLIEILVEVMDPSFVCLKIGACPSAH
modifications: Saposin-D
notes: recombinant

Assays:
Assay type in all cases: cell-based
KS Y-1 cells = experiment: KS Y-1 cell proliferation assay (MTT); conditions: for KS Cell Proliferation, % of Control: 7,500 KS Y-1 cells/well; for KS Cell Proliferation, % of Control / Cell Proliferation Activity (% of control), KSY-1: 5 days, MTT; for Cell Proliferation Activity (% of control), KSY-1: concentration not printed
Description: (§1) To determine if Saposin B polypeptides had anti-angiogenic activity, a series of overlapping polypeptides were synthesized and tested in the KS Y-1 cell proliferation assay. The overlapping polypeptides are SEQ ID NOS:13 though 42. Cell Proliferation assays in either KS cells or fibroblast. Cells were plated in 48 well plates at equal numbers in appropriate culture medium. Cells were treated with the test compounds at various concentrations on day one, and on day 3. MTT was done on day 5. KS cells were used to represent the activated endothelial cells, while fibroblast cells represent the control cells. The results are remarkable for the lack of toxicity to the fibroblast relative to the activated endothelial cells/KS cells.

T1 cells = experiment: Fibroblast proliferation assay (MTT); conditions: concentration not given, 5 days
Description: as §1, with “MTT was done on day 5.” left out

KS cell lines = experiment: Activity of recombinant Prosaposin chains on growth of KS cell lines; conditions: Saposin C: highest concentration tested 50 μg/mL
From the text: In order to determine whether recombinant Saposin B has anti-angiogenic activity, the coding region of each of the Prosaposin chains was amplified from fibroblast cell lines and cloned into both bacterial (pGEX-KG) and eukaryotic (pcDNA 3.1His A) expression vectors.
The PCR products were digested with the respective restriction enzymes and the restriction products were inserted into the pGEX-KG vector for bacterial expression. pGEX-KG vector comprises a glutathione S transferase (GST)-tag at the […] of the insertion site so that a GST-fusion protein is expressed. The GST-tag is used to aid in purification of the recombinant protein. After elution from a glutathione-Sepharose 4B column, the GST-tagged proteins were incubated with thrombin (4 μg/ml) for 4 hr at room temperature (22-25° C.) in 50 mM Tris, pH 8.3, 3 mM CaCl2, 150 mM NaCl to cleave GST from the fusion protein. Free GST was removed from the preparation by passing the digested fusion protein through the glutathione-Sepharose 4B column.
(§2) By SDS-PAGE, the bacterial product was smaller than the eukaryotic protein. Because prokaryotically expressed proteins are not glycosylated, the difference in molecular weights probably represents the presence of carbohydrate in the eukaryotic protein. Recombinant proteins were then tested in KS, endothelial and control cell lines. Activity was found only in KS cell lines and endothelial cells.

[1] = tested on: endothelial cells (HUVEC); experiment: Growth inhibition of endothelial cells; conditions: Saposin C: highest concentration tested 50 μg/mL
Description: FIG. 1D: Activity of n-terminus decapeptide (DVCQDCIQMV; SEQ ID NO 21).
FIG. 1E: Activity of N-terminus pentapeptide (DVCQC; SEQ ID NO: 28).
as §2

[2] = first of two KSY-1 value columns
[3] = second of two KSY-1 value columns

| Molecule | KS Cell Proliferation, % of Control (KS Y-1 cells; 10 μg/ml) | KS Cell Proliferation, % of Control (KS Y-1 cells; 100 μg/mL) | KS Cell Proliferation, % of Control (KS Y-1 cells; 500 μg/mL) | activity against KS cell lines (KS cell lines) | activity against endothelial cells [1] | further results |
| --- | --- | --- | --- | --- | --- | --- |
| GDVCQDSIQMV [SEQ ID NO:33, GDVCQDSIQMV] | – | – | – | – | – | IC50 (KS Y-1 cells): 7.8 µM |
| GDVSQDCIQMV [SEQ ID NO:32, GDVSQDCIQMV] | – | – | – | – | – | IC50 (KS Y-1 cells): 18 µM |
| YISQYSEIAIQMMMHMQP [SEQ ID NO:17, YISQYSEIAIQMMMHMQP] | 96.3 % of Control | 86.4 % of Control | 46.9 % of Control | – | – | IC50 (KS Y-1 cells): 20 µM |
| IQMVTDIQTAVRTNSTF [SEQ ID NO:14] | 89.3 % of Control | 60.7 % of Control | 28.6 % of Control | – | – | – |
| DVCQDCIQM [SEQ ID NO:24] | – | – | – | – | – | Cell Proliferation Activity (% of control), KSY-1 (KS Y-1 cells; [2]): 68 % of control; Cell Proliferation Activity (% of control), KSY-1 (KS Y-1 cells; [3]): 46 % of control; Cell Proliferation Activity (% of control), T1 (T1 cells): 84 % of control; Cell Proliferation Activity (% of control), T1 (T1 cells; first of two T1 value columns): 96 % of control |
| QMMMHMQPKEICALVG [SEQ ID NO:18] | 88.9 % of Control | 86.4 % of Control | 58.0 % of Control | – | – | – |
| STFVQALVEHVKEECDR [SEQ ID NO:15] | 101.8 % of Control | 60.7 % of Control | 28.6 % of Control | – | – | – |
| CQDCIQMV [SEQ ID NO:30] | – | – | – | – | – | Cell Proliferation Activity (% of control), KSY-1 (KS Y-1 cells; [2]): 77 % of control; Cell Proliferation Activity (% of control), KSY-1 (KS Y-1 cells; [3]): 35 % of control; Cell Proliferation Activity (% of control), T1 (T1 cells): 84 % of control; Cell Proliferation Activity (% of control), T1 (T1 cells; first of two T1 value columns): 92 % of control |
| B1 | – | – | – | no activity | no activity | – |
| B2 | – | – | – | no activity | no activity | – |
| B3 | – | – | – | no activity | no activity | – |
| B4 | – | – | – | no activity | no activity | – |
